Tests used:
[1] = In vivo rat (bone marrow) micronucleus assay
[2] = test system: castration-resistant prostate cancer (CRPC); experiment: Phase II clinical trial of apalutamide 240 mg daily in CRPC; type: in vivo, human; conditions: for 12-week PSA declines of >50% or more from baseline (% of patients): preliminary
From the text: The primary objective was to assess antitumor activity and PSA kinetics as defined by the Prostate Cancer Clinical Trials Working Group (PCWG2) criteria. […] The median time to PSA progression was not reached for the TN cohort during the preliminary 12-week period, and was 16 weeks in the PA cohort.
The median time to PSA progression was not reached in this observed time period.

[3] = Drug-drug interaction studies: effect of other medications on apalutamide; type: in vivo, human
LNCaP/AR cells = experiment: In vitro model of CRPC (AR-over-expressing prostate cancer cells); type: cell-based
in vivo = conditions: dog
From the text: Single-dose and repeat-dose toxicology studies up to 13 weeks of dosing have been conducted in male Sprague Dawley (SD) rats and male Beagle dogs (repeat-dose studies only).

[4] = Clinical pharmacokinetics (population PK analysis); conditions: for dose dependence of exposure (Cmax and AUC): repeat once-daily dosing, 30 to 480 mg
[5] = test system: T1, major CYP isoforms other than CYP2C8; experiment: Cytochrome P450 inhibition: major isoforms; type: in vitro ADME; conditions: human; the other major isoforms (other than CYP2C8)
T1 construct: IC50; other: the other major isoforms (other than CYP2C8)

[6] = Fertility study in male rats; type: in vivo
Plasma protein binding = conditions: plasma
[7] = Preclinical pharmacokinetic profile; type: in vivo
CYP2B6 and CYP2C8 = experiment: In vitro CYP inhibition: CYP2B6 and CYP2C8
[8] = test system: CYP2C9, CYP2C19, and CYP3A4; experiment: In vitro CYP inhibition: CYP2C9, CYP2C19, CYP3A4
[9] = In vitro chromosome aberration test; type: cell-based
[10] = Phase III study (SPARTAN, Study 1): safety; type: in vivo, human
From the text: SPARTAN, a randomized (2:1), double-blind, placebo-controlled, multi-center clinical study, enrolled patients who had non-metastatic, castration-resistant prostate cancer (NM-CRPC).

[11] = test system: castration-resistant LNCaP/AR-Luc xenograft model; experiment: Murine tumor (xenograft) models of CRPC; type: in vivo; conditions: for tumor cell proliferation and apoptosis in vivo: CRPC / mouse xenograft models of prostate cancer
[12] = target: T2, human cytochrome P450 isoform CYP2C8 (Homo sapiens, UniProt P10632); experiment: Cytochrome P450 inhibition: CYP2C8; type: in vitro ADME
T2 sequence (P10632 1-490): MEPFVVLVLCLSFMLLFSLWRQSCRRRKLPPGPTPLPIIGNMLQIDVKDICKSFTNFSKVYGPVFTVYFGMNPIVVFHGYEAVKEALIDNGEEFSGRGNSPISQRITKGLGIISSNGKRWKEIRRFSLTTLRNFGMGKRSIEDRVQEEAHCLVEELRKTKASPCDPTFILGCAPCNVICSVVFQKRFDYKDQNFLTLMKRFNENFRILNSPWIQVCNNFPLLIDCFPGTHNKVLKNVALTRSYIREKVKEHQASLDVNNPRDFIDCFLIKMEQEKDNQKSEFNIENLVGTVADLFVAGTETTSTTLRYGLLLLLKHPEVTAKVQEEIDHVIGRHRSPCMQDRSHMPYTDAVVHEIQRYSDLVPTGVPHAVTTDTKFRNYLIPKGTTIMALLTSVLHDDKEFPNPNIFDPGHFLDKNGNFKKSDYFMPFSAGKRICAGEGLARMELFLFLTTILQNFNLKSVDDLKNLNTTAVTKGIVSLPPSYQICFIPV

In the case of `CNC(=O)c1ccc(N2C(=S)N(c3cnc(C#N)c(C(F)(F)F)c3)C(=O)C23CCC3)cc1F` [apalutamide, 4-[7-(6-cyano-5-trifluoromethylpyridin-3-yl)-8-oxo-6-thioxo-5,7-diazaspiro[3.4]oct-5-yl]-2-fluoro-N-methylbenzamide], the “genotoxicity, in vivo rat micronucleus assay” value [1] is reported as “not genotoxic”, the “median time to PSA progression” value ([2]; PA cohort) is reported as 16 weeks and the “12-week PSA declines of >50% or more from baseline (% of patients)” value ([2]; PA cohort (progressed after abiraterone acetate plus prednisone), 240 mg oral daily) is reported as 29%. The “12-week PSA declines of >50% or more from baseline (% of patients)” value ([2]; TN cohort (treatment-naive metastatic CRPC), 240 mg oral daily) was 88%, the “median time to PSA progression” value ([2]; TN cohort, preliminary 12-week period) was “not reached” and the “objective response rate (by RECIST)” value ([2]; TN patients with measurable disease at baseline) was 63%. The “patients with >50% decline in PSA as compared to baseline” value ([2]; non-metastatic CRPC, 240 mg oral daily, 12 weeks) was 91%, the “patients with >50% decline in PSA” value ([2]; non-metastatic CRPC, 24 weeks) was 91% and the “patients with >90% decline in PSA” value ([2]; non-metastatic CRPC, 24 weeks) was 55%. The “median time to PSA progression” value ([2]; non-metastatic CRPC, observed time period) was “not reached”, the “increase in AUC of apalutamide” value ([3]; 240 mg single dose with gemfibrozil) was 68% and the “decrease in Cmax of apalutamide” value ([3]; 240 mg single dose with gemfibrozil (strong CYP2C8 inhibitor)) was 21%. The AUC of apalutamide ([3]; 240 mg single dose with itraconazole) was “similar”, the “decrease in Cmax of apalutamide” value ([3]; 240 mg single dose with itraconazole (strong CYP3A4 inhibitor)) was 22% and the “genotoxicity, in vivo rat Comet assay” value (In vivo rat Comet assay) was “not genotoxic”. The “agonist properties in an in vitro model of CRPC” value (LNCaP/AR cells; LNCaP/AR cells) was “no significant agonist properties”, the “Gene transcription of the androgen-driven genes, PSA and TMPRSS2” value (LNCaP/AR cells; in vitro) was “inhibited” and the “increases in cholesterol compared to controls” value (in vivo) was “up to 50%”. The NOAEL at 13 weeks (in vivo; male, Beagle) was 5 mg/kg/day, the NOAEL at 28 days (in vivo; male, Beagle) was 10 mg/kg/day and the “dose at which seizures necessitating humane euthanasia occurred” value (in vivo; male, Beagle) was at least 25 mg/kg/day. The “dose with reproductive system findings” value (in vivo; male, Beagle) was over 2.5 mg/kg/day, the AUC(0-t) (in vivo; male, Beagle, 10 mg/kg/day) was 290 µg·h/mL and the Cmax (in vivo; male, Beagle, 10 mg/kg/day) was 13200 ng/mL. For the same compound, the “time to steady state” value ([4]; 240 mg once daily) was 4 weeks, the CL/F ([4]; after single dosing) was 1.3 L/h and the CL/F ([4]; at steady-state after once-daily dosing) was 2.0 L/h. The “changes in Cmax and AUC with food” value ([4]; high-fat meal vs fasting, healthy subjects) was “no clinically relevant changes”, the Tmax ([4]; human, plasma, po) was 2 h and the bioavailability ([4]; human, plasma, po) was about 100%. For the same compound, the “differences in pharmacokinetics in specific populations” value ([4]; mild or moderate renal impairment, mild or moderate hepatic impairment, age 18 to 94 years, race) was “No clinically significant differences”, the “dose dependence of exposure (Cmax and AUC)” value [4] was “dose-proportional” and the “dose dependence of exposure (Cmax and AUC)” value ([4]; listed as Apalutamide) was “increased proportionally”. For the same compound, the IC50 [5] was over 25 µM, the “live fetuses (pre- and/or post-implantation loss)” value ([6]; 4 weeks of 150 mg/kg/day) was “reduced number of live fetuses” and the “dose with decreased sperm concentration and motility, copulation and fertility rates, reduced secondary sex gland and epididymis weights” value ([6]; 4 weeks of dosing, male rats) was over 25 mg/kg/day. For the same compound, the “reversibility of effects on male rats” value ([6]; after 8 weeks from the last administration) was “reversible”, the fraction unbound (Plasma protein binding) was 0.04 and the clearance ([7]; preclinical) was “low clearance”. For the same compound, the volume of distribution ([7]; preclinical) was “moderate volume of distribution”, the bioavailability ([7]; when dosed with a lipid-based formulation) was “high bioavailability” and the “inhibition of CYP2B6 and CYP2C8” value (CYP2B6 and CYP2C8) was “moderate inhibitors”. The “inhibition of CYP2C9, CYP2C19, and CYP3A4” value [8] was “weak inhibitors”, the “genotoxicity, in vitro chromosome aberration” value [9] was “not genotoxic” and the Arthralgia ([10]; All Grades) was 15.9%. The Fall ([10]; All Grades) was 15.6%, the “Fracture (grouped term)” value ([10]; All Grades) was 11.7% and the Hypercholesterolemia ([10]; All Grades) was 6.1%. The Hypertriglyceridemia ([10]; All Grades) was 3.5%, the “Hypothyroidism (grouped term)” value ([10]; All Grades) was 8.1% and the Pruritus ([10]; All Grades) was 6.2%. For the same compound, the Seizure ([10]; All Grades) was 0.2%, the “Skin rash (grouped term)” value ([10]; All Grades) was 24% and the Weight decreased ([10]; All Grades) was 16.1%. The Fatigue ([10]; All Grades, N = 803) was 30.4%, the “Skin rash (grouped term)” value ([10]; All Grades, listed as Apalutamide) was 23.8% and the Arthralgia ([10]; Grade 3-4) was 0%. For the same compound, the Fall ([10]; Grade 3-4) was 1.7%, the Fatigue ([10]; Grade 3-4) was 0.9% and the “Fracture (grouped term)” value ([10]; Grade 3-4) was 2.7%. For the same compound, the Hypercholesterolemia ([10]; Grade 3-4) was 0%, the Hypertriglyceridemia ([10]; Grade 3-4) was 0.6% and the “Hypothyroidism (grouped term)” value ([10]; Grade 3-4) was 0%. The Pruritus ([10]; Grade 3-4) was 0.2%, the Seizure ([10]; Grade 3-4) was 0% and the “Skin rash (grouped term)” value ([10]; Grade 3-4) was 5.2%. The Weight decreased ([10]; Grade 3-4) was 1.1%, the “onset of skin rash, median” value ([10]; days of treatment) was 82 days and the “Grade 3 skin rashes (covering >30% body surface area)” value ([10]; in vivo) was 5.2%. The “Hypothyroidism in patients already receiving thyroid replacement therapy” value ([10]; in vivo) was 28%, the “Hypothyroidism in patients not receiving thyroid replacement therapy” value ([10]; in vivo) was 5.7% and the “discontinuations due to adverse events” value ([10]; in vivo) was 11%. For the same compound, the “dose interruption among patients with skin rash” value ([10]; in vivo) was 28%, the “dose reduction among patients with skin rash” value ([10]; in vivo) was 12% and the “dose reduction, reason "other"” value ([10]; in vivo) was 9.7%. The “dose reduction, reason adverse event” value ([10]; in vivo) was 11%, the “patients whose skin rash resolved” value ([10]; in vivo) was 81% and the “recurrence of skin rash in patients who were re-challenged” value ([10]; in vivo) was “approximately half”. For the same compound, the “subjects receiving no dose modifications” value ([10]; in vivo) was 79%, the “subjects with 2 dose interruptions” value ([10]; in vivo) was 6.6% and the “subjects with dose interruptions due to TEAEs” value ([10]; in vivo) was 34%. For the same compound, the “subjects with dose reductions” value ([10]; in vivo) was 21%, the “subjects with one dose interruption” value ([10]; in vivo) was 22% and the “subjects with one dose reduction” value ([10]; in vivo) was 8.2%. For the same compound, the “subjects with two dose reductions” value ([10]; in vivo) was 13%, the “time to resolution of rash from onset, median” value ([10]; in vivo) was 60 days and the “treatment discontinuation among patients who experienced skin rash” value ([10]; in vivo) was 9%. For the same compound, the “tumor cell proliferation and apoptosis in vivo” value [11] was “reduce proliferation of CRPC cells as well as increase apoptosis and necrosis”, the “tumor cell proliferation and apoptosis in vivo” value ([11]; listed as Apalutamide) was “decreased tumor cell proliferation and increased apoptosis leading to decreased tumor volume” and the “tumor growth inhibition and tumor regression” value ([11]; murine tumor models of CRPC) was “dose-dependent tumor growth inhibition and tumor regression that were superior to bicalutamide”. For the same compound, the IC50 [12] was 13.9 µM.
